Tests used:
[1] = tested on: human abdominal skin; experiment: In vitro human skin permeation and skin disposition, flow-through diffusion cells (Examples 2, 2A, 2B); type: in vitro ADME; conditions: for Flux enhancement: total cannabidiol versus cannabidiol
Summary of the method: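 Dermatomed (~200 μm) frozen human abdominal skin was mounted in flow-through cells at 32° C (0.95 cm^2), stratum corneum to donor. Donors were 0.10 mL 45:4:1 PG:H2O:IPM solution or 50 μL gel; receiver was 40% PEG 400 (HEPES-Hanks pH 7.4 or aqueous) with gentamicin at 0.8 mL/h. Samples were taken every 3 h for 24-42 h; skin accumulation was expressed as μmol/g wet tissue.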

[2] = Plasma stability of cannabidiol prodrugs (bioconversion to parent drug); type: in vitro ADME; conditions: for % Prodrug at time (h): mono-prodrug in plasma; for % mono-prodrug at time (h) / % Di-prodrug at time (h): di-prodrug in plasma; for % mono-prodrug at time (h): mono-prodrug formed
Protocol: An approximated 1 mg/mL stock solution of each prodrug was prepared in 100 μL of ethanol and 900 μL of acetonitrile. Ten (10) μL of stock was spiked into 1 mL of plasma and vortexed. The samples were kept sealed in an amber vial and samples were obtained to analyze for bioconversion to parent drug.

[3] = Table 16, 90:8:2 PG:H2O:IPM donor solution, 60/40 Hanks'/PEG 400 receiver fluid, CBD from applied prodrug
[4] = Table 16, 90:8:2 PG:H2O:IPM donor solution, 60/40 Hanks'/PEG 400 receiver fluid, as applied compound (CBD or intact prodrug)
[5] = Table 16, 90:8:2 PG:H2O:IPM donor solution, 60/40 Hanks'/PEG 400 receiver fluid, prodrug applied, as total cannabidiol equivalents
[6] = Table 18, 90:8:2 PG:H2O:IPM donor solution, 40% aqueous PEG 400 receiver fluid, CBD from applied prodrug
[7] = Table 18, 90:8:2 PG:H2O:IPM donor solution, 40% aqueous PEG 400 receiver fluid, as applied compound (CBD or intact prodrug)
[8] = Table 18, 90:8:2 PG:H2O:IPM donor solution, 40% aqueous PEG 400 receiver fluid, mono-prodrug from applied di-prodrug
[9] = Table 18, 90:8:2 PG:H2O:IPM donor solution, 40% aqueous PEG 400 receiver fluid, prodrug applied, as total cannabidiol equivalents
[10] = Table 18, 90:8:2 PG:H2O:IPM donor solution, 40% aqueous PEG 400 receiver fluid
[11] = Table 23, gel formulation, 40% aqueous PEG 400 receiver fluid, as applied compound (CBD or intact prodrug)
[12] = Table 23, gel formulation, 40% aqueous PEG 400 receiver fluid, mono-prodrug (ALL00149) from applied di-prodrug
[13] = Table 23, gel formulation, 40% aqueous PEG 400 receiver fluid, prodrug applied, as total cannabidiol equivalents

For `C=C(C)[C@@H]1CCC(C)=C[C@H]1c1c(O)cc(CCCCC)cc1OC(=O)COCCOCCOCCOC` [ALL00131, CBD 3,6,9,12-tetraoxatridecanoate], the “42 h cumulative amt” value [1, 3] was 15.4 ± 2.0 nmol, the Flux [1, 3] was 0.6 ± 0.1 nmol/cm^2/h and the Lag time [1, 3] was 9.6 ± 3.0 h. The “42 h cumulative amt” value [1, 4] was 54.9 ± 22.1 nmol, the “42 h skin conc” value [1, 4] was 12.5 ± 5.5 µmol/g and the Flux [1, 4] was 2.3 ± 0.8 nmol/cm^2/h. The Lag time [1, 4] was 13.7 ± 1.9 h, the “42 h cumulative amt” value [1, 5] was 70.3 ± 20.4 nmol and the “42 h skin conc” value [1, 5] was 12.5 ± 5.5 µmol/g. The Flux [1, 5] was 2.8 ± 0.7 nmol/cm^2/h, the Lag time [1, 5] was 12.9 ± 1.6 h and the Flux enhancement ([1]; Table 16, 90:8:2 PG:H2O:IPM donor solution, 60/40 Hanks'/PEG 400 receiver fluid) was 0.43. The “detected in the skin as” value ([1]; in donor solution) was “only as prodrug”, the “flux compared to cannabidiol” value ([1]; in donor solution) was “did not increase the flux” and the “lag time compared to cannabidiol” value ([1]; in donor solution) was “similar”. The “permeated through the skin as” value ([1]; in donor solution) was “intact prodrug and cannabidiol”, the “total skin concentrations compared to cannabidiol” value ([1]; in donor solution) was “not higher” and the “% Prodrug at time (h)” value ([2]; Table 20, 0 h) was 100%. The “% Prodrug at time (h)” value ([2]; Table 20, 1 h) was 64%, the “% Prodrug at time (h)” value ([2]; Table 20, 2 h) was 42% and the “% Prodrug at time (h)” value ([2]; Table 20, 4 h) was 24%. The “% Prodrug at time (h)” value ([2]; Table 20, 6 h) was 14% and the “% Prodrug at time (h)” value ([2]; Table 20, 24 h) was 14%.

With `C=C(C)[C@@H]1CCC(C)=C[C@H]1c1c(O)cc(CCCCC)cc1OC(=O)[C@@H](O)CO` [ALL00137, CBD (S)-2,3-dihydroxypropanoate] the “30 h skin conc” value ([1]; Table 17, 90:8:2 PG:H2O:IPM donor solution, 40% aqueous PEG 400 receiver fluid, CBD from applied prodrug) was 0.3 ± 0.0 µmol/g, the “30 h skin conc” value ([1]; Table 17, 90:8:2 PG:H2O:IPM donor solution, 40% aqueous PEG 400 receiver fluid, as applied compound (CBD or intact prodrug)) was 0.9 ± 0.3 µmol/g and the “30 h skin conc” value ([1]; Table 17, 90:8:2 PG:H2O:IPM donor solution, 40% aqueous PEG 400 receiver fluid, prodrug applied, as total cannabidiol equivalents) was 1.0 ± 0.5 µmol/g. For the same compound, the “detected in the skin as” value ([1]; in donor solution) was “prodrug and trace amounts of cannabidiol”, the “permeated through the skin as” value ([1]; in donor solution) was “did not permeate through the skin or was below detection in the receiver samples” and the “total skin concentrations compared to cannabidiol” value ([1]; in donor solution) was “not higher”. For the same compound, the “% Prodrug at time (h)” value ([2]; Table 20, 0 h) was 89%, the “% Prodrug at time (h)” value ([2]; Table 20, 1 h) was 73% and the “% Prodrug at time (h)” value ([2]; Table 20, 3 h) was 60%. For the same compound, the “% Prodrug at time (h)” value ([2]; Table 20, 24 h) was 4%.

In the case of `C=C(C)[C@@H]1CCC(C)=C[C@H]1c1c(OC=O)cc(CCCCC)cc1OC=O` [ALL00145, CBD Diformate], the “30 h cumulative amt” value [1, 6] is reported as 17.2 ± 4.5 nmol, the “30 h skin conc” value [1, 6] is reported as 8.8 ± 7.0 µmol/g and the Flux [1, 6] is reported as 1.4 ± 0.1 nmol/cm^2/h. The Lag time [1, 6] was 17.4 ± 3.3 h, the “30 h skin conc” value [1, 7] was 3.8 ± 2.1 µmol/g and the “30 h cumulative amt” value [1, 8] was 17.5 ± 6.1 nmol. For the same compound, the “30 h skin conc” value [1, 8] was 23.5 ± 19.3 µmol/g, the Flux [1, 8] was 1.5 ± 0.6 nmol/cm^2/h and the Lag time [1, 8] was 19.0 ± 1.9 h. For the same compound, the “30 h cumulative amt” value [1, 9] was 34.7 ± 7.0 nmol, the “30 h skin conc” value [1, 9] was 36.1 ± 28.2 µmol/g and the Flux [1, 9] was 2.9 ± 0.7 nmol/cm^2/h. For the same compound, the Lag time [1, 9] was 17.2 ± 2.5 h, the Flux enhancement [1, 10] was 0.35 and the “detected in the skin as” value ([1]; in donor solution) was “prodrug, mono-substituted prodrug, ALL00146, and cannabidiol”. For the same compound, the “flux compared to cannabidiol” value ([1]; in donor solution) was “did not increase the flux”, the “lag time compared to cannabidiol” value ([1]; in donor solution) was “wasn't decreased” and the “share permeated through the skin as cannabidiol” value ([1]; in donor solution) was “approximately 50%”. The “share permeated through the skin as mono-substituted prodrug” value ([1]; in donor solution) was “approximately 50%”, the “total skin concentrations compared to cannabidiol” value ([1]; in donor solution) was “higher” and the “% mono-prodrug at time (h)” value ([2]; Table 20, 0 h) was 40%. The “% mono-prodrug at time (h)” value ([2]; Table 20, 0.5 h) was 44%, the “% mono-prodrug at time (h)” value ([2]; Table 20, 22 h) was 23% and the “% mono-prodrug at time (h)” value ([2]; Table 20, 24 h) was 11%. For the same compound, the “% Di-prodrug at time (h)” value ([2]; Table 20, 0 h) was 60%, the “% Di-prodrug at time (h)” value ([2]; Table 20, 0.5 h) was 45% and the “% Di-prodrug at time (h)” value ([2]; Table 20, 22 h) was 37%. The “% Di-prodrug at time (h)” value ([2]; Table 20, 24 h) was 13%.

In the case of `C=C(C)[C@@H]1CCC(C)=C[C@H]1c1c(OC(=O)CO)cc(CCCCC)cc1OC(=O)CO` [ALL00147, CBD Diglycolate], the “30 h cumulative amt” value [1, 6] is reported as 8.2 ± 7.0 nmol, the “30 h skin conc” value [1, 6] is reported as 3.9 ± 0.8 µmol/g and the Flux [1, 6] is reported as 0.7 ± 0.6 nmol/cm^2/h. The Lag time [1, 6] was 16.7 ± 0.7 h, the “30 h cumulative amt” value [1, 7] was 11.7 ± 3.8 nmol and the “30 h skin conc” value [1, 7] was 6.3 ± 5.6 µmol/g. The Flux [1, 7] was 0.7 ± 0.01 nmol/cm^2/h, the Lag time [1, 7] was 13.0 ± 5.9 h and the “30 h cumulative amt” value [1, 8] was 9.1 ± 0.2 nmol. The “30 h skin conc” value [1, 8] was 7.1 ± 6.3 µmol/g, the Flux [1, 8] was 0.6 ± 0.2 nmol/cm^2/h and the Lag time [1, 8] was 11.8 ± 5.9 h. The “30 h cumulative amt” value [1, 9] was 29.0 ± 3.4 nmol, the “30 h skin conc” value [1, 9] was 17.3 ± 12.6 µmol/g and the Flux [1, 9] was 1.9 ± 0.8 nmol/cm^2/h. For the same compound, the Lag time [1, 9] was 13.3 ± 5.0 h, the Flux enhancement [1, 10] was 0.24 and the “24 h cumulative amt” value [1, 11] was 0.9 nmol. For the same compound, the “24 h skin conc” value [1, 11] was 0.8 ± 0.7 µmol/g, the “24 h cumulative amt” value [1, 12] was 5.7 nmol and the “24 h skin conc” value [1, 12] was 8.7 ± 6.6 µmol/g. The Flux [1, 12] was 0.25 nmol/cm^2/h, the “24 h cumulative amt” value [1, 13] was 12.5 nmol and the “24 h skin conc” value [1, 13] was 9.5 ± 7.3 µmol/g. For the same compound, the Flux [1, 13] was 0.58 nmol/cm^2/h, the Flux enhancement ([1]; Table 23, gel formulation, 40% aqueous PEG 400 receiver fluid) was 2.0 and the “detected in the skin as” value ([1]; in donor solution) was “prodrug, mono-substituted prodrug, ALL00149, and cannabidiol”. The “flux compared to cannabidiol” value ([1]; in donor solution) was “did not increase the flux”, the “lag time compared to cannabidiol” value ([1]; in donor solution) was “not decreased” and the “permeated through the skin as” value ([1]; in donor solution) was “intact prodrug, mono-substituted prodrug (ALL00149), and cannabidiol”. For the same compound, the “total skin concentrations compared to cannabidiol” value ([1]; in donor solution) was “not higher”, the “detected in the skin as” value ([1]; in gel formulation) was “primarily as mono-prodrug, ALL00149 with a trace amount of ALL00147” and the “increase of the flux compared to cannabidiol” value ([1]; in gel formulation) was 2 fold. For the same compound, the “share permeated through the skin as cannabidiol” value ([1]; in gel formulation) was 47.2%, the “share permeated through the skin as intact di-prodrug” value ([1]; in gel formulation) was 7.2% and the “share permeated through the skin as mono-prodrug” value ([1]; in gel formulation) was 45.6%. The “total skin concentrations compared to cannabidiol” value ([1]; in gel formulation) was “weren't higher”, the “% mono-prodrug at time (h)” value ([2]; Table 20, 0.5 h) was 0% and the “% mono-prodrug at time (h)” value ([2]; Table 20, 2 h) was 0%. The “% mono-prodrug at time (h)” value ([2]; Table 20, 22 h) was 0%, the “% mono-prodrug at time (h)” value ([2]; Table 20, 24 h) was 0% and the “% Di-prodrug at time (h)” value ([2]; Table 20, 0 h) was 100%. For the same compound, the “% Di-prodrug at time (h)” value ([2]; Table 20, 0.5 h) was 55%, the “% Di-prodrug at time (h)” value ([2]; Table 20, 2 h) was 32% and the “% Di-prodrug at time (h)” value ([2]; Table 20, 22 h) was 13%. For the same compound, the “% Di-prodrug at time (h)” value ([2]; Table 20, 24 h) was 12%, the “% mono-prodrug at time (h)” value ([2]; Table 24, 0 h) was 3% and the “% mono-prodrug at time (h)” value ([2]; Table 24, 0.5 h) was 37%. For the same compound, the “% mono-prodrug at time (h)” value ([2]; Table 24, 1 h) was 10%, the “% mono-prodrug at time (h)” value ([2]; Table 24, 2 h) was 2% and the “% Di-prodrug at time (h)” value ([2]; Table 24, 0 h) was 97%. For the same compound, the “% Di-prodrug at time (h)” value ([2]; Table 24, 0.5 h) was 0%, the “% Di-prodrug at time (h)” value ([2]; Table 24, 1 h) was 0% and the “% Di-prodrug at time (h)” value ([2]; Table 24, 2 h) was 0%.
